The source of these data is article PMC7366380, “Discovery of a Potent and Selective Covalent Inhibitor and Activity-Based Probe for the Deubiquitylating Enzyme UCHL1, with Antifibrotic Activity” (Journal of the American Chemical Society, 2020).

“And” between values parts separate entries of the source, which are not always exact repeats. Equal values may be shown once.

Common to all, as to assay: In-cell proteome-wide competitive ABPP, HEK293: other DUBs and proteins
For test [1], the target named is DUBs and other proteins in HEK293 cells (Homo sapiens, UniProt O00487). As to conditions: replicates A-C.
Test [2] has as its target DUBs and other proteins in HEK293 cells (Homo sapiens, UniProt P54578). As to conditions: USP14; 20 nM ABP 2; DMSO subtracted; replicates A-C.
The target of test [3] is DUBs and other proteins in HEK293 cells (Homo sapiens, UniProt Q6P2Q9). As to conditions: replicates A-C.
Test [4] addresses DUBs and other proteins in HEK293 cells (Homo sapiens, UniProt Q7L5N1). As to conditions: for Log2 reporter intensity values, COPS6: 20 nM ABP 2 (10 min), no competitor, TMT replicates.
The target of test [5] is DUBs and other proteins in HEK293 cells (Homo sapiens, UniProt Q92905). As to conditions: for Log2 reporter intensity values, COPS5: 20 nM ABP 2 (10 min), no competitor, TMT replicates.
Test [6] concerns the target DUBs and other proteins in HEK293 cells (Homo sapiens, UniProt Q93008). As to conditions: replicates A-C.
The mark [7] stands for this setting: 20 nM ABP 2 alone, DMSO substract (FC).
[8] abbreviates: 20 nM ABP 2 alone, DMSO substract (FC), replicates A-C.

Sequence of DUBs and other proteins in HEK293 cells (Homo sapiens, UniProt Q93008) (Q93008 whole entry): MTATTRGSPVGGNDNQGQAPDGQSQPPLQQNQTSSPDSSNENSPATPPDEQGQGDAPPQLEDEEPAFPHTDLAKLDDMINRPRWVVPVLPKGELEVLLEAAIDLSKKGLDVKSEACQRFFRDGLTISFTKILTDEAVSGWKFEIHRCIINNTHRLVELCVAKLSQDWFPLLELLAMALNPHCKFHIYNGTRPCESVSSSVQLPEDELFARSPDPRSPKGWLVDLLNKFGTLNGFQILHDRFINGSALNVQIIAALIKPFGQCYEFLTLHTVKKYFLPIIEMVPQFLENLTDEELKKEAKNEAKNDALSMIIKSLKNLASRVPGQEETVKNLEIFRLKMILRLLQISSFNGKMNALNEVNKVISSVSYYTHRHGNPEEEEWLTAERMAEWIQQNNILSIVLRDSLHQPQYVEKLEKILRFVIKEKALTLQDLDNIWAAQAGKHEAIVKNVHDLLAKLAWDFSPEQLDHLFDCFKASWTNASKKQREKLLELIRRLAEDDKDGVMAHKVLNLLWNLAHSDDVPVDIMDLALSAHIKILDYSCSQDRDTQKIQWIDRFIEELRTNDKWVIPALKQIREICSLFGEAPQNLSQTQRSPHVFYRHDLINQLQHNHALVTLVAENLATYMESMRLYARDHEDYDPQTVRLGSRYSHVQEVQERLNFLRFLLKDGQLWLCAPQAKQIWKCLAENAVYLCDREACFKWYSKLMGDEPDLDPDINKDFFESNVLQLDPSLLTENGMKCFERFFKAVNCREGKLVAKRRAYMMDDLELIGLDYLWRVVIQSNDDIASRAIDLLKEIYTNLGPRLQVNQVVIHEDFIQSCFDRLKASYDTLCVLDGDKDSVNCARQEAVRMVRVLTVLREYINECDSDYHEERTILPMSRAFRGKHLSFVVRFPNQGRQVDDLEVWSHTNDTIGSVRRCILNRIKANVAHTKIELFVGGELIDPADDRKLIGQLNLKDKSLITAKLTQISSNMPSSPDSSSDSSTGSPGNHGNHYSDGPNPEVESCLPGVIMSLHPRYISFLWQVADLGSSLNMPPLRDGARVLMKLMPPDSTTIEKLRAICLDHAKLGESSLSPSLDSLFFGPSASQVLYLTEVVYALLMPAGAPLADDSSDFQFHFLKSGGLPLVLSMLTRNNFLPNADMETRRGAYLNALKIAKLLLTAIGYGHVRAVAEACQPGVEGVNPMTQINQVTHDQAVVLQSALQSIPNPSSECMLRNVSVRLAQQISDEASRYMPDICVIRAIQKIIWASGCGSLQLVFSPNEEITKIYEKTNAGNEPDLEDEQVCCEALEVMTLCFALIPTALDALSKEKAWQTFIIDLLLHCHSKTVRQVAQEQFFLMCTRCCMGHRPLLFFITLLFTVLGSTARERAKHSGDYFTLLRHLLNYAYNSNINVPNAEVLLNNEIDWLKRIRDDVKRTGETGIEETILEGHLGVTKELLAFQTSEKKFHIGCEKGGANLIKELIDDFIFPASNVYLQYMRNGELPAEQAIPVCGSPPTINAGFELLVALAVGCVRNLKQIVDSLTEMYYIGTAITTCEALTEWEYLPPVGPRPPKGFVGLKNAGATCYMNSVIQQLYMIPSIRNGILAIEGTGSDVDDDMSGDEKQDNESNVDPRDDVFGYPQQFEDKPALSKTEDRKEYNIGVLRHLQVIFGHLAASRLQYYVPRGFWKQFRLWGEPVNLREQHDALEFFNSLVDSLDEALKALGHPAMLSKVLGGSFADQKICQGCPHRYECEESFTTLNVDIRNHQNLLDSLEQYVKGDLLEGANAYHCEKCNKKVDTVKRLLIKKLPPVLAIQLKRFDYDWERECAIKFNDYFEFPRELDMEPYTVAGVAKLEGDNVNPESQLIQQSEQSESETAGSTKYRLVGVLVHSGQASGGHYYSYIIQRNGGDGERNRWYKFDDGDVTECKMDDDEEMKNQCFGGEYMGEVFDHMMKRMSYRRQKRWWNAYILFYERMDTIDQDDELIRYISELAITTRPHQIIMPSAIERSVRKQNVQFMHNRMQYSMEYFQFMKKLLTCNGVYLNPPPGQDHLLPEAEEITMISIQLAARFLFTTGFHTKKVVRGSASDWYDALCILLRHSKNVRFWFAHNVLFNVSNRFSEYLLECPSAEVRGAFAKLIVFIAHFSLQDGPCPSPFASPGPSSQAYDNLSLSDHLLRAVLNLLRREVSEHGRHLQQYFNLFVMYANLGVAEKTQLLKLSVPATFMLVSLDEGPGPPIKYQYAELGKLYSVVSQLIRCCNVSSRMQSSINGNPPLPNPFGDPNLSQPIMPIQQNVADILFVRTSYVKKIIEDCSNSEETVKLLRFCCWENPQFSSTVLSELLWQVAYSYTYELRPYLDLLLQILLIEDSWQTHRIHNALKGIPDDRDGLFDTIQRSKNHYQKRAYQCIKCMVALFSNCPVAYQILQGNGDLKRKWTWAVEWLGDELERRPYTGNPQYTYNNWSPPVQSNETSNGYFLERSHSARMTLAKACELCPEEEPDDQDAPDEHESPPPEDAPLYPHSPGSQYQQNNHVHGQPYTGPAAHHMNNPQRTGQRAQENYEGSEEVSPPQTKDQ
Sequence of DUBs and other proteins in HEK293 cells (Homo sapiens, UniProt O00487) (O00487 whole entry): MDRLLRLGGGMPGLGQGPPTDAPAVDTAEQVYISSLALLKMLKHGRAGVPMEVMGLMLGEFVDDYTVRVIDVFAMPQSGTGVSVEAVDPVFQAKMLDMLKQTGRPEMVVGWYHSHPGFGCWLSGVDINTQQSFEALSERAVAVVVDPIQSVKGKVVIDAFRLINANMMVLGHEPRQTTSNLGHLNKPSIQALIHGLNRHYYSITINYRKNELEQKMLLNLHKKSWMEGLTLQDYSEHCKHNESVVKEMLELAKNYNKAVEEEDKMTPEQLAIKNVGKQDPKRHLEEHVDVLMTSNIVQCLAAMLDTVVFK
Sequence of DUBs and other proteins in HEK293 cells (Homo sapiens, UniProt Q7L5N1) (Q7L5N1 whole entry): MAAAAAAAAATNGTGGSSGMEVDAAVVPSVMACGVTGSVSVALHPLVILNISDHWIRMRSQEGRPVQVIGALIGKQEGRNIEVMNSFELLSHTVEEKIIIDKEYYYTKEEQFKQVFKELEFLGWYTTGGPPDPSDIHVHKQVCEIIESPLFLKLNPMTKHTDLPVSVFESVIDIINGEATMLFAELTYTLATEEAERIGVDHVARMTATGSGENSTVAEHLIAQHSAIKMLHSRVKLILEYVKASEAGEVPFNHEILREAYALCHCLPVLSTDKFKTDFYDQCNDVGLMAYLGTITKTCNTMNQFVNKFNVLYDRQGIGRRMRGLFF
Sequence of DUBs and other proteins in HEK293 cells (Homo sapiens, UniProt Q92905) (Q92905 whole entry): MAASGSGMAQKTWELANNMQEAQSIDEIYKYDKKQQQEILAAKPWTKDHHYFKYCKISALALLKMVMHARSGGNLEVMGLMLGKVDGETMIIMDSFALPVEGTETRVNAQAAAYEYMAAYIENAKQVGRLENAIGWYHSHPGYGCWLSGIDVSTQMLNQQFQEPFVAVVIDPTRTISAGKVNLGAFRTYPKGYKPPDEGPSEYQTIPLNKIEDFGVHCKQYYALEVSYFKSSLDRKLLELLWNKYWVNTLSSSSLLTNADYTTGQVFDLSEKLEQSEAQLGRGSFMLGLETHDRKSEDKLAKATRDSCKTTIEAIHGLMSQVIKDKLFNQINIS
Sequence of DUBs and other proteins in HEK293 cells (Homo sapiens, UniProt P54578) (P54578 whole entry): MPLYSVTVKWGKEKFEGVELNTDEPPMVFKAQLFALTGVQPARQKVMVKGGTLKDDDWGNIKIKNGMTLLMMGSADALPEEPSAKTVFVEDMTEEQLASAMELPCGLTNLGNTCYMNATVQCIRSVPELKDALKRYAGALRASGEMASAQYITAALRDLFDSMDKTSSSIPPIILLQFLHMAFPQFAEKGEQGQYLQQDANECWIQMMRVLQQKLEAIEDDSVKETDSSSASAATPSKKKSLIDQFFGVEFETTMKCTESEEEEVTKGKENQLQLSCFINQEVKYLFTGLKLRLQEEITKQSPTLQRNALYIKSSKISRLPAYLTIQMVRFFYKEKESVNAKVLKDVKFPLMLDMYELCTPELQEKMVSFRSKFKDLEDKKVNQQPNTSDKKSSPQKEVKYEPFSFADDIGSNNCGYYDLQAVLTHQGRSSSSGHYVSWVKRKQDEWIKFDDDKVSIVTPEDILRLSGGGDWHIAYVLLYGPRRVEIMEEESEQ

For the molecule `C#Cc1cnc2[nH]cc(-c3cccc4c3CCN4C(=O)[C@@H]3CCCN3C#N)c2c1` [Compound 2], the “Log2 reporter intensity values: PSMD14” value in test [1] (setting [7]) was 0.9494 and 1.033 and 1.015. For the same molecule, the “Log2 reporter intensity values” in test [1] (PSMD14, 20 nM ABP 2, DMSO subtracted) was -0.07484 and 0.0464 and 0.02103 and -0.05321 and 0.03002 and 0.01203; in test [2], 0.1674 and 0.2186 and 0.2005 and 0.1633 and 0.1489; in test [3] (PRPF8, 20 nM ABP 2, DMSO subtracted) it was -0.3117 and -0.1898 and -0.2661 and -0.1946 and -0.1687; in test [4] (COPS6, 20 nM ABP 2, DMSO subtracted, replicates A-C) it was 0.05567 and 0.07701 and -0.001766 and 0.03923 and 0.05472 and -0.001335; in test [5] (COPS5, 20 nM ABP 2, DMSO subtracted, replicates A-C), 0.1518 and 0.03179 and 0.3034 and 0.1109 and 0.0222 and 0.2339; in test [6] (USP9X;USP9Y, 20 nM ABP 2, DMSO subtracted) it was -0.08683 and -0.06047 and -0.07892 and -0.05844 and -0.04108. The “Log2 reporter intensity values: PRPF8” value in test [3] (setting [7]) was 0.8057 and 0.8767 and 0.8316. The “Log2 reporter intensity values, COPS6” value in test [4] (All values) is 0.06809 and 0.08942 and 0.01065; in test [4] (DMSO subtracted), 0.05567 and 0.07701 and -0.001766. In addition, the “Log2 reporter intensity values: COPS6” value in test [4] (setting [8]) is 1.039 and 1.055 and 0.9988. The “Log2 t-test Difference” value came to 0.04364 in test [4] (COPS6, ABP 2 - 20 nM) and 0.1623 in test [5] (COPS5, ABP 2 - 20 nM). Besides, the “Log2 reporter intensity values, COPS5” value is 0.09368 and -0.02632 and 0.2453 in test [5] (All values); 0.1518 and 0.03179 and 0.3034 in test [5] (DMSO subtracted). Moreover, in test [5] (setting [8]), the “Log2 reporter intensity values: COPS5” value was 1.111 and 1.022 and 1.234. The “Log2 reporter intensity values: USP9X;USP9Y” value in test [6] (setting [7]) was 0.9211 and 0.9416 and 0.9589.
